Key:
[1] = tested on: L. delbrueckii CCUG 34222; test: Soft-agar overlay screen of peptide-expressing yeast (BY4742)
[2] = tested on: Lactobacillus amylovorus; test: Soft-agar overlay screen of peptide-expressing yeast, other lactic acid bacteria; assay type: cell-based; conditions: sometimes weak
[3] = tested on: L. lactis NCCB 26066; test: Soft-agar overlay screen of peptide-expressing yeast (BY4742)
[4] = tested on: P. pentosaceus NCCB 31016; test: as above
[5] = tested on: Lactobacillus brevis; test: Soft-agar overlay screen of peptide-expressing yeast, other lactic acid bacteria; assay type: cell-based
[6] = tested on: W. confusa CCUG30943; test: Soft-agar overlay screen of peptide-expressing yeast (BY4742)
[7] = tested on: Lactobacillus casei; test: Soft-agar overlay screen of peptide-expressing yeast, other lactic acid bacteria; assay type: cell-based; conditions: sometimes weak
[8] = tested on: Pediococcus acidilactici; test: as above; assay type: cell-based
[9] = tested on: Lactococcus lactis subsp. cremoris; test: as above; assay type: cell-based
[10] = tested on: L. reuteri CCUG 32624; test: Soft-agar overlay screen of peptide-expressing yeast (BY4742)
[11] = tested on: Leuconostoc mesenteroides subsp. mesenteroides; test: Soft-agar overlay screen of peptide-expressing yeast, other lactic acid bacteria; assay type: cell-based
[12] = tested on: W. confusa CCUG30113; test: Soft-agar overlay screen of peptide-expressing yeast (BY4742)
[13] = tested on: E. faecium NCCB 86023; test: as above
[14] = tested on: Lactobacillus delbrueckii subsp. delbrueckii; test: Soft-agar overlay screen of peptide-expressing yeast, other lactic acid bacteria; assay type: cell-based
[15] = tested on: Lactobacillus plantarum; test: as above; assay type: cell-based
[16] = tested on: Pediococcus damnosus; test: as above; assay type: cell-based
[17] = tested on: P. pentosaceus; test: Small-scale mock ethanol fermentation contaminated with P. pentosaceus; assay type: cell-based, Pediococcus pentosaceus; conditions: 72 hours; contamination OD600 0.00005-0.05; virginiamycin 2 mg/L
Procedure: (§1) Small-scale mock ethanol fermentations were carried out in 2 mL microcentrifuge tubes with a venting hole in the cap made with a 30 gauge needle. Starter cultures of yeast were grown in YPD at 30° C. with agitation. Starter cultures of L. fermentum CCUG 72619 were grown in MRS at 37° C. without agitation. […] . Control fermentations contained 2 mg/L virginiamycin. The fermentations were incubated at 30° C. without agitation for 72 hours and then analyzed by HPLC.
(§2) . M2 wild-type with and without virginiamycin, M2-pPedA, M2-pPedA-K1A, M2-pPedA-K1A/T22A, and M2-pPedA-K1T were compared (FIGS. 14A-14D, 15A-15D). […] . The pediocin-expressing strains were not effective at completely preventing the lactic acid production by L. delbrueckii or P. pentosaceus. […] .

[18] = tested on: L. delbrueckii; test: Small-scale mock ethanol fermentation contaminated with L. delbrueckii; assay type: cell-based, Lactobacillus delbrueckii; conditions: 72 hours; contamination OD600 0.00005-0.05; virginiamycin 2 mg/L
Procedure: as §1, §2

[19] = tested on: L. fermentum CCUG 72619; assay type: cell-based, Lactobacillus fermentum

Substance | Inhibition, L. delbrueckii CCUG 34222 [1] | Antibacterial activity against Lactobacillus amylovorus [2] | Inhibition, L. lactis NCCB 26066 [3] | Growth inhibition zones of P. pentosaceus ([4]; FIG. 7, BY4742 with pHVXU-pedA, 30° C., 1 day) | Inhibition, P. pentosaceus NCCB 31016 ([4]; soft-agar overlay, peptide-expressing yeast) | Antibacterial activity against Lactobacillus brevis [5] | Inhibition, W. confusa CCUG30943 [6] | Antibacterial activity against Lactobacillus casei [7] | Antibacterial activity against Pediococcus acidilactici [8] | Antibacterial activity against Lactococcus lactis subsp. cremoris [9] | Inhibition, L. reuteri CCUG 32624 [10] | Antibacterial activity against Leuconostoc mesenteroides subsp. mesenteroides [11] | Inhibition, W. confusa CCUG30113 [12] | Inhibition, E. faecium NCCB 86023 [13] | Antibacterial activity against Lactobacillus delbrueckii subsp. delbrueckii [14] | Antibacterial activity against Lactobacillus plantarum [15] | Antibacterial activity against Pediococcus damnosus [16] | Lactic acid production by P. pentosaceus [17] | Lactic acid production by L. delbrueckii [18] | Variability in residual glucose [19]
Pediocin PA-1 from [Pediococcus acidilactici] (KYYGNGVTCGKHSCSVDWGKATTCIINNGAMAWATGGHQGNHKC; listed as Pediococcus acidilactici) | + | showed some antibacterial activity | + | Growth inhibition zones of P. pentosaceus are observable | + | showed antibacterial activity | − | showed some antibacterial activity | showed antibacterial activity | showed antibacterial activity | − | showed antibacterial activity | − | + | showed antibacterial activity | showed antibacterial activity | showed antibacterial activity |  |  | 
virginiamycin |  |  |  |  |  |  |  |  |  |  |  |  |  |  |  |  |  | effective at preventing the lactic acid production | effective at preventing the lactic acid production | tended to be reduced
